{
  "source": "paper PMC11233931",
  "about": "“Remodeling tumor‐associated macrophage for anti‐cancer effects by rational design of irreversible inhibition of mitogen‐activated protein kinase‐activated protein kinase 2” (MedComm, 2024)",
  "assay_in_all_cases": "Eurofins kinase selectivity profile against 380 other human recombinant kinases (Table S2)",
  "format_in_all_cases": "biochemical",
  "key": {"[1]": {"target": "T1, 380 human recombinant protein kinases (Homo sapiens, UniProt Q9H093)", "T1 construct": "purchased Eurofins (Celle Lévescault)", "T1 sequence (Q9H093 1-628)": "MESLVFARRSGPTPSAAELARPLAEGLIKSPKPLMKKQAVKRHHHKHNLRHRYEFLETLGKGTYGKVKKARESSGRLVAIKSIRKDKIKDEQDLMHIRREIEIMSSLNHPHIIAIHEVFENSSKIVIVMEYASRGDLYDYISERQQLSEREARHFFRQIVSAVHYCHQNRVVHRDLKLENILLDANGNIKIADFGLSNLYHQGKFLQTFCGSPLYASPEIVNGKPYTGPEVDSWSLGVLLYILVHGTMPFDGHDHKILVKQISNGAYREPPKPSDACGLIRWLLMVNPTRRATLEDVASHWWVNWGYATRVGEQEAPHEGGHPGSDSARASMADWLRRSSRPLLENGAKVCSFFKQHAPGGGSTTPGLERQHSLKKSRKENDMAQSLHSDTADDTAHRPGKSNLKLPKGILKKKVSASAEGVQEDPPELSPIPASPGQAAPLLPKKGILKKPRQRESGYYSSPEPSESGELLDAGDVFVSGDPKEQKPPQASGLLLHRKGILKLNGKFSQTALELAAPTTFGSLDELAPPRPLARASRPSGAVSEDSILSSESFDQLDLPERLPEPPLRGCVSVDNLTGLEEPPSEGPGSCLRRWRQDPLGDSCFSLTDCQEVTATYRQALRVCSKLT", "conditions": "NUAK2(h), read-out: Inhibition rate", "outline": "(§1)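 To gauge specificity for MK2, the compound is profiled externally at various concentrations on recombinant human kinases, 380 in total.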"}, "[2]": {"target": "T2, 380 human recombinant protein kinases (Homo sapiens, UniProt P29322)", "T2 construct": "purchased Eurofins (Celle Lévescault)", "T2 sequence (P29322 28-1005)": "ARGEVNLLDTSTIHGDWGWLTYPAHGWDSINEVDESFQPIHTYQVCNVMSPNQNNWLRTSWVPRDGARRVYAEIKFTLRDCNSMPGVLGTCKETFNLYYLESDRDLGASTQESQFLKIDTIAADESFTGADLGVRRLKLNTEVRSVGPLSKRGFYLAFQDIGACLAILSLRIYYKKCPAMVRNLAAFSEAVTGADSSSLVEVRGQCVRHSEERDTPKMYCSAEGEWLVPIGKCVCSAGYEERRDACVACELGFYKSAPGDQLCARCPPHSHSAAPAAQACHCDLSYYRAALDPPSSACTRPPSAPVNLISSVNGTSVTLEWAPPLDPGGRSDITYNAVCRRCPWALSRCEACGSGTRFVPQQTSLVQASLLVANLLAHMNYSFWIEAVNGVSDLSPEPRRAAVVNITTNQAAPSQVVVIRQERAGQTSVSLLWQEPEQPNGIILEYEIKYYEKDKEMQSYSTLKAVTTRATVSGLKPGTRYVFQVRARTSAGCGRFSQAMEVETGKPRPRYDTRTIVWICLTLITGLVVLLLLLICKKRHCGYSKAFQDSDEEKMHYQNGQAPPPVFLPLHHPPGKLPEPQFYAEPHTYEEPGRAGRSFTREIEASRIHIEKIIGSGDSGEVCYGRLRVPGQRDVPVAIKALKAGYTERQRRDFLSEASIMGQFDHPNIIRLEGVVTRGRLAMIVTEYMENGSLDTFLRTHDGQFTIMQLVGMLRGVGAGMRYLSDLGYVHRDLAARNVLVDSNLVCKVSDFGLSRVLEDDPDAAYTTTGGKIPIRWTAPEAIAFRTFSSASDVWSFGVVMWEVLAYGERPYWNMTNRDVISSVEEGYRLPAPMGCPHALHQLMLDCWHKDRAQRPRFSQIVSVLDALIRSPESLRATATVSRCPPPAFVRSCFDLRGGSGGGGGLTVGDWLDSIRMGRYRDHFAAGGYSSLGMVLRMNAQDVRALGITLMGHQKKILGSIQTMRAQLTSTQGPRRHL", "conditions": "EphA8(h), read-out: Inhibition rate", "outline": "as §1"}, "[3]": {"target": "T3, 380 human recombinant protein kinases (Homo sapiens, UniProt Q6IQ55)", "T3 construct": "purchased Eurofins (Celle Lévescault)", "T3 sequence (Q6IQ55 whole entry)": "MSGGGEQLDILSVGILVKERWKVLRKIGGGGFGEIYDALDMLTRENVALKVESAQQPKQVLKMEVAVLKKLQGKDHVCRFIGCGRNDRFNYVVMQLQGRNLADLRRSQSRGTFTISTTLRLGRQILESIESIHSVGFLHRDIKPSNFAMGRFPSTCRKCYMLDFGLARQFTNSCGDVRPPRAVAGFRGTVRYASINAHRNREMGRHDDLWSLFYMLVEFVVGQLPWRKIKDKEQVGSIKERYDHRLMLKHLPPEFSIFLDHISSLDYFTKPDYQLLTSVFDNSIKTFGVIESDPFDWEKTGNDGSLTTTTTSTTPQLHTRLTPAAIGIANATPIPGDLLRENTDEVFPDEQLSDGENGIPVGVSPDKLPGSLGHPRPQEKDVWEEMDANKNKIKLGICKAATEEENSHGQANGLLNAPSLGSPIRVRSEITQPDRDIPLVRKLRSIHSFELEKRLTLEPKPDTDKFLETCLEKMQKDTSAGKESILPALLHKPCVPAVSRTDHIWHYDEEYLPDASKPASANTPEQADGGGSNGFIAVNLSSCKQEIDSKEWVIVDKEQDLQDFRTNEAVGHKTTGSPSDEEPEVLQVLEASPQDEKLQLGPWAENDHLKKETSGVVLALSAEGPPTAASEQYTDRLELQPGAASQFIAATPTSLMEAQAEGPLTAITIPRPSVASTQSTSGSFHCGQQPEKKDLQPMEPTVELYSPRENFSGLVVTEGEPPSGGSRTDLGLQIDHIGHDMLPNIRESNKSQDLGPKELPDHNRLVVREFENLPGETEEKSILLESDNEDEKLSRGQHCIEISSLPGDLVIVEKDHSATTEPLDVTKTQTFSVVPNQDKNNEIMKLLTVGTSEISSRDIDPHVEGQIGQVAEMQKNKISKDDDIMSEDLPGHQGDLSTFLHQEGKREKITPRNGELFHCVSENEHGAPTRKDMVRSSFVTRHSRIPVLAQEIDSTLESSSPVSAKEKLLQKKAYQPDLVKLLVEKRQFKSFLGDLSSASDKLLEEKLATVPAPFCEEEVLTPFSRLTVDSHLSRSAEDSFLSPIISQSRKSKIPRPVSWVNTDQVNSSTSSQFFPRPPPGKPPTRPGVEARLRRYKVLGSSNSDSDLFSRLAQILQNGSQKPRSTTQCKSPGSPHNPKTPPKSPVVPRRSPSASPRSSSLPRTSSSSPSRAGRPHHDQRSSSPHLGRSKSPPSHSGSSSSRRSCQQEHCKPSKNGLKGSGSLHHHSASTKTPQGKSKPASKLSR", "conditions": "TTBK2(h), read-out: Inhibition rate (%)", "outline": "as §1"}, "[4]": {"target": "T4, 380 human recombinant protein kinases (Homo sapiens, UniProt Q13153)", "T4 construct": "purchased Eurofins (Celle Lévescault)", "T4 sequence (Q13153 whole entry)": "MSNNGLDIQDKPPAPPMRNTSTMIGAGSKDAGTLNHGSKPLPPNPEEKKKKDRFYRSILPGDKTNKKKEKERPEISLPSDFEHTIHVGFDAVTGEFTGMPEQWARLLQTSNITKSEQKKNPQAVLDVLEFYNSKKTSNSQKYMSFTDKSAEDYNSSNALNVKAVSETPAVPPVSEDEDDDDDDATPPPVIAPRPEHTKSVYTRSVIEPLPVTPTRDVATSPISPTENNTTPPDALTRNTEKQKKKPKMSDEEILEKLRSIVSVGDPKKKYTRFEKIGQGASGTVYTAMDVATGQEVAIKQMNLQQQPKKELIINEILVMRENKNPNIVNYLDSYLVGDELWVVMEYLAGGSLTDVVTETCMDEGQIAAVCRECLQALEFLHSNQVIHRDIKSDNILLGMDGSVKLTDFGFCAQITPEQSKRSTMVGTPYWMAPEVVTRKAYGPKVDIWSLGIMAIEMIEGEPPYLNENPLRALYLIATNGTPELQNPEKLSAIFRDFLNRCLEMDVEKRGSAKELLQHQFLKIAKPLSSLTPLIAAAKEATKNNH", "conditions": "PAK1(h), read-out: Inhibition rate", "outline": "as §1"}, "[5]": {"target": "T5, 380 human recombinant protein kinases (Homo sapiens, UniProt Q05513)", "T5 construct": "purchased Eurofins (Celle Lévescault)", "T5 sequence (Q05513 1-592)": "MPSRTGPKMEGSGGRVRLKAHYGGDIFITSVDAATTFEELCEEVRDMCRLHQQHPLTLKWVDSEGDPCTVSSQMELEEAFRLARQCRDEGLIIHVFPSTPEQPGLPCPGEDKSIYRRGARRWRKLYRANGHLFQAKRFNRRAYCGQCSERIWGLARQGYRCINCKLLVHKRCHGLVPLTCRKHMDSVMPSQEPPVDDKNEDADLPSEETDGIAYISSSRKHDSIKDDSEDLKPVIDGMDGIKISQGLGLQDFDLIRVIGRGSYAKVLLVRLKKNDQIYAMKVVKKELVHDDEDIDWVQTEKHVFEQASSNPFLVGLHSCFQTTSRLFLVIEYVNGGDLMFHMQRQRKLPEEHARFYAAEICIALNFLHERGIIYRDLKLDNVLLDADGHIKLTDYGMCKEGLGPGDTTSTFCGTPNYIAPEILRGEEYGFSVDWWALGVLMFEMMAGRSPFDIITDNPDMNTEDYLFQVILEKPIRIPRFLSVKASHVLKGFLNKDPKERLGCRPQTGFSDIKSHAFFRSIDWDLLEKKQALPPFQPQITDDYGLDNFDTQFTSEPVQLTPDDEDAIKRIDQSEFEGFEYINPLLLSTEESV", "conditions": "PKCζ(h), read-out: Inhibition rate", "outline": "as §1"}, "[6]": {"target": "T6, 380 human recombinant protein kinases (Homo sapiens, UniProt Q02750)", "T6 construct": "purchased Eurofins (Celle Lévescault)", "T6 sequence (Q02750 whole entry)": "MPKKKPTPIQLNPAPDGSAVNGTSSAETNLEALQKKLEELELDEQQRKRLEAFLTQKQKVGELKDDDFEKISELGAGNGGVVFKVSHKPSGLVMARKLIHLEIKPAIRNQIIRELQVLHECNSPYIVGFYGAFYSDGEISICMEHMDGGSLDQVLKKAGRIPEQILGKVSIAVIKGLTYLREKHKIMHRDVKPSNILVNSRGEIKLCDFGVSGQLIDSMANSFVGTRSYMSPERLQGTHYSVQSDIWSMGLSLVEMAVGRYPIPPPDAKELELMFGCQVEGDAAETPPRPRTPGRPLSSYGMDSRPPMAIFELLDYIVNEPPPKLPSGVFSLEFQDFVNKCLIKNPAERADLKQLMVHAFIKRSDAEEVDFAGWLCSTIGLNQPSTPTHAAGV", "conditions": "MEK1(h), read-out: Inhibition rate", "outline": "as §1"}},
  "data": [
    {"smiles": "C=CC(=O)Nc1cc(-c2cc(-c3cc4c([nH]3)CCNC4=O)ccn2)ccc1OC(F)(F)F", "note": "[compound 11]", "values": [
      {"measurement": "inhibition at 0.01 µM", "setting": "[1]; 10 nM", "result": -16, "unit": "%"},
      {"measurement": "inhibition at 0.1 µM", "setting": "[1]; 100 nM", "result": -8, "unit": "%"},
      {"measurement": "inhibition at 1 µM", "setting": "[1]; 1000 nM", "result": 8, "unit": "%"},
      {"measurement": "inhibition at 0.01 µM", "setting": "[2]; 10 nM", "result": 1, "unit": "%"},
      {"measurement": "inhibition at 0.1 µM", "setting": "[2]; 100 nM", "result": 2, "unit": "%"},
      {"measurement": "inhibition at 1 µM", "setting": "[2]; 1000 nM", "result": 1, "unit": "%"},
      {"measurement": "inhibition at 0.01 µM", "setting": "[3]; 10 nM", "result": -1, "unit": "%"},
      {"measurement": "inhibition at 0.1 µM", "setting": "[3]; 100 nM", "result": -3, "unit": "%"},
      {"measurement": "inhibition at 1 µM", "setting": "[3]; 1000 nM", "result": 3, "unit": "%"},
      {"measurement": "inhibition at 0.01 µM", "setting": "[4]; 10 nM", "result": -10, "unit": "%"},
      {"measurement": "inhibition at 0.1 µM", "setting": "[4]; 100 nM", "result": -7, "unit": "%"},
      {"measurement": "inhibition at 1 µM", "setting": "[4]; 1000 nM", "result": -5, "unit": "%"},
      {"measurement": "inhibition at 0.01 µM", "setting": "[5]; 10 nM", "result": -5, "unit": "%"},
      {"measurement": "inhibition at 0.1 µM", "setting": "[5]; 100 nM", "result": -4, "unit": "%"},
      {"measurement": "inhibition at 1 µM", "setting": "[5]; 1000 nM", "result": -8, "unit": "%"},
      {"measurement": "inhibition at 0.01 µM", "setting": "[6]; 10 nM", "result": -12, "unit": "%"},
      {"measurement": "inhibition at 0.1 µM", "setting": "[6]; 100 nM", "result": -4, "unit": "%"},
      {"measurement": "inhibition at 1 µM", "setting": "[6]; 1000 nM", "result": -8, "unit": "%"}
    ]}
  ]
}
